According to patent US9163020B2, “Azaindole compounds, synthesis thereof, and methods of using the same” (Global Alliance for TB Drug Development, priority 2013, dated 2015):
Values after ≈ are worked out from the molar mass of the structure shown. Read-outs that look alike come from different tables or passages of the source.

System: Mycobacterium tuberculosis (Mtb) H37Rv ATCC 27294
Experiment: microbe, parasite or virus in culture
Assay type: cell-based
Conditions: Table 1, read-out: Mtb MIC

| Compound | MIC (Mycobacterium tuberculosis) [µM] | MIC [µM] |
| --- | --- | --- |
| CC(c1c(F)cccc1F)n1cc(C(=O)NCCF)c2ncccc21 (stereo not drawn) [Compound 1, 1-(1-(2,6-difluorophenyl)ethyl)-N-(2-fluoroethyl)-1H-pyrrolo[3,2-b]pyridine-3-carboxamide] | 12.5 (≈ 4.34 µg/mL) |  |
| COc1ccc(F)cc1Cn1cc(C(=O)NCC2CC2)c2nccc(C)c21 [Compound 2, N-(Cyclopropylmethyl)-1-(5-fluoro-2-methoxybenzyl)-7-methyl-1H-pyrrolo[3,2-b]pyridine-3-carboxamide] | 6.25 (≈ 2.3 µg/mL) |  |
| COc1ccc(F)c(F)c1Cn1cc(C(=O)NCCF)c2ncccc21 [Compound 5, 1-(2,3-difluoro-6-methoxybenzyl)-N-(2-fluoroethyl)-1H-pyrrolo[3,2-b]pyridine-3-carboxamide] | < 0.66 |  |
| COCCNC(=O)c1cn(Cc2cc(F)cnc2OC)c2cccnc12 [Compound 6] | 1.3 (≈ 0.466 µg/mL) |  |
| COCCNC(=O)c1cn(Cc2ncnc(OC)c2C)c2cccnc12 [Compound 7, 1-((6-methoxy-5-methylpyrimidin-4-yl)methyl)-N-(2-methyl)-1H-pyrrolo[3,2-b]pyridine-3-carboxamide] | < 1.33 |  |
| COc1ncnc(Cn2cc(C(=O)NCCO)c3ncccc32)c1C [Compound 9, N-(2-hydroxyethyl)-1-((6-methoxy-5-methylpyrimidin-4-yl)methyl)-1H-pyrrolo[3,2-b]pyridine-3-carboxamide] | 13.9 (≈ 4.75 µg/mL) |  |
| COc1ncnc(Cn2cc(C(=O)NCC3CC3)c3ncc(C)cc32)c1C [Compound 10, N-(cyclopropylmethyl)-1-((6-methoxy-5-methylpyrimidin-4-yl)methyl)-6-methyl-1H-pyrrolo[3,2-b]pyridine-3-carboxamide] | 1.56 (≈ 0.57 µg/mL) |  |
| COCCNC(=O)c1cn(Cc2ncnc(OC)c2C)c2cc(C)cnc12 [Compound 11, 1-((6-methoxy-5-methylpyrimidin-4-yl)methyl)-N-(2-methoxyethyl)-6-methyl-1H-pyrrolo[3,2-b]pyridine-3-carboxamide] | 0.781 (≈ 0.289 µg/mL) |  |
| Cc1c(OCC(F)(F)F)ccnc1Cn1cc(C(=O)NCCF)c2ncccc21 [Compound 12, N-(2-fluoroethyl)-1-((3-methyl-4-(2,2,2-trifluoroethoxy)pyridin-2-yl)methyl)-1H-pyrrolo[3,2-b]pyridine-3-carboxamide] | 6.25 (≈ 2.56 µg/mL) |  |
| COc1ncc(C(F)(F)F)cc1Cn1cc(C(=O)NCCF)c2ncccc21 [Compound 13, N-(2-fluoroethyl)-1-((2-methoxy-5-(trifluoromethyl)pyridin-3-yl)methyl)-1H-pyrrolo[3,2-b]pyridine-3-carboxamide] | < 0.53 |  |
| COc1ncc(C#N)cc1Cn1cc(C(=O)NCCF)c2ncccc21 [Compound 14, 1-((5-cyano-2-methoxypyridin-3-yl)methyl)-N-(2-fluoroethyl)-1H-pyrrolo[3,2-b]pyridine-3-carboxamide] | 3.12 (≈ 1.1 µg/mL) |  |
| COc1ncc(F)cc1Cn1cc(C(=O)NCCF)c2ncc(C)cc21 [Compound 15, 1-((5-fluoro-2-methoxypyridin-3-yl)methyl)-N-(2-fluoroethyl)-6-methyl-1H-pyrrolo[3,2-b]pyridine-3-carboxamide] | 1.56 (≈ 0.562 µg/mL) |  |
| COc1ncnc(Cn2cc(C(=O)NC[C@H](C)F)c3ncc(C)cc32)c1C [Compound 16, (S)—N-(2-fluoropropyl)-1-((6-methoxy-5-methylpyrimidin-4-yl)methyl)-6-methyl-1H-pyrrolo[3,2-b]pyridine-3-carboxamide] | 0.156 (≈ 0.0579 µg/mL) |  |
| COc1nc(C)c(F)cc1Cn1cc(C(=O)NCCF)c2ncccc21 [Compound 18, 1-((5-fluoro-2-methoxy-6-methylpyridin-3-yl)methyl)-N-(2-fluoroethyl)-1H-pyrrolo[3,2-b]pyridine-3-carboxamide] | 0.781 (≈ 0.281 µg/mL) |  |
| COc1ncnc(Cn2cc(C(=O)NCCF)c3ncc(F)cc32)c1C [Compound 19, 6-fluoro-N-(2-fluoroethyl)-1-((6-methoxy-5-methylpyrimidin-4-yl)methyl)-1H-pyrrolo[3,2-b]pyridine-3-carboxamide] | 6.25 (≈ 2.26 µg/mL) |  |
| COc1ncnc(Cn2cc(C(=O)NCCF)c3ncc(Br)cc32)c1C [Compound 20, 6-bromo-N-(2-fluoroethyl)-1-((6-methoxy-5-methylpyrimidin-4-yl)methyl)-1H-pyrrolo[3,2-b]pyridine-3-carboxamide] | 0.781 (≈ 0.33 µg/mL) |  |
| Cc1cnc2c(C(=O)NCCF)cn(Cc3nccc(OCC(F)(F)F)c3C)c2c1 [Compound 21, N-(2-fluoroethyl)-6-methyl-1-((3-methyl-4-(2,2,2-trifluoroethoxy)pyridin-2-yl)methyl)-1H-pyrrolo[3,2-b]pyridine-3-carboxamide] | 1.56 (≈ 0.662 µg/mL) |  |
| COc1ncc(C(F)(F)F)cc1Cn1cc(C(=O)NC[C@H](C)F)c2ncc(C)cc21 [Compound 22, (S)—N-(2-fluoropropyl)-1-((2-methoxy-5-(trifluoromethyl)pyridin-3-yl)methyl)-6-methyl-1H-pyrrolo[3,2-b]pyridine-3-carboxamide] | < 0.391 |  |

| Compound | MIC (Mycobacterium tuberculosis) [µM] | MIC [µM] |
| --- | --- | --- |
| COc1ncnc(Cn2cc(C(=O)NCCOC(F)(F)F)c3ncccc32)c1C [Compound 23, 1-((6-methoxy-5-methylpyrimidin-4-yl)methyl)-N-(2-(trifluoromethoxy)ethyl)-1H-pyrrolo[3,2-b]pyridine-3-carboxamide] | 3.12 (≈ 1.28 µg/mL) |  |
| COc1ncc(F)cc1Cn1cc(C(=O)NC[C@H](C)F)c2ncc(C)cc21 [Compound 24, (S)-1-((5-fluoro-2-methoxypyridin-3-yl)methyl)-N-(2-fluoropropyl)-6-methyl-1H-pyrrolo[3,2-b]pyridine-3-carboxamide] | < 0.391 |  |
| COc1ncnc(Cn2cc(NC(=O)CC3CC3)c3ncccc32)c1C [Compound 25, 2-cyclopropyl-N-(1-((6-methoxy-5-methylpyrimidin-4-yl)methyl)-1H-pyrrolo[3,2-b]pyridin-3-yl)acetamide] | 25 (≈ 8.79 µg/mL) |  |
| Cc1cnc2c(C(=O)NCCF)cn(Cc3cc(F)c(C)nc3C)c2c1 [Compound 26, 1-((5-fluoro-2,6-dimethylpyridin-3-yl)methyl)-N-(2-fluoroethyl)-6-methyl-1H-pyrrolo[3,2-b]pyridine-3-carboxamide] | 3.12 (≈ 1.12 µg/mL) |  |
| Cc1cnc2c(C(=O)NCCO)cn(Cc3nccc(OCC(F)(F)F)c3C)c2c1 [Compound 27, N-(2-hydroxyethyl)-6-methyl-1-((3-methyl-4-(2,2,2-trifluoroethoxy)pyridin-2-yl)methyl)-1H-pyrrolo[3,2-b]pyridine-3-carboxamide] | 3.12 (≈ 1.32 µg/mL) |  |
| COc1ncnc(Cn2cc(C(=O)NC[C@@H](C)O)c3ncc(C)cc32)c1C [Compound 28, (R)—N-(2-hydroxypropyl)-1-((6-methoxy-5-methylpyrimidin-4-yl)methyl)-6-methyl-1H-pyrrolo[3,2-b]pyridine-3-carboxamide] | 6.25 (≈ 2.31 µg/mL) |  |
| Cc1cnc2c(C(=O)NCCF)cn(Cc3ncnc(N(C)C)c3C)c2c1 [Compound 29, 1-((6-(dimethylamino)-5-methylpyrimidin-4-yl)methyl)-N-(2-fluoroethyl)-6-methyl-1H-pyrrolo[3,2-b]pyridine-3-carboxamide] | 1.56 (≈ 0.578 µg/mL) |  |
| COc1ncnc(Cn2cc(C(=O)NCC(F)F)c3ncc(C)cc32)c1C [Compound 33, N-(2,2-difluoroethyl)-1-((6-methoxy-5-methylpyrimidin-4-yl)methyl)-6-methyl-1H-pyrrolo[3,2-b]pyridine-3-carboxamide] |  | <0.39 |
| Cc1cnc2c(C(=O)NCCO)cn(Cc3ncnc(OC(F)F)c3C)c2c1 [Compound 35, 1-((6-(Difluoromethoxy)-5-methylpyrimidin-4-yl)methyl)-N-(2-hydroxyethyl)-6-methyl-1H-pyrrolo[3,2-b]pyridine-3-carboxamide] | < 0.39 |  |
| COc1cnc2c(C(=O)NCCF)cn(Cc3ncnc(OC)c3C)c2c1 [Compound 36, N-(2-fluoroethyl)-6-methoxy-1-((6-methoxy-5-methylpyrimidin-4-yl)methyl)-1H-pyrrolo[3,2-b]pyridine-3-carboxamide] | < 0.39 |  |
| COc1cnc2c(C(=O)NCC(F)F)cn(Cc3ncnc(OC)c3C)c2c1 [Compound 37, N-(2,2-difluoroethyl)-6-methoxy-1-((6-methoxy-5-methylpyrimidin-4-yl)methyl)-1H-pyrrolo[3,2-b]pyridine-3-carboxamide] | < 0.39 |  |
| COc1cnc2c(C(=O)NCCO)cn(Cc3ncnc(OC)c3C)c2c1 [Compound 38, N-(2-hydroxyethyl)-6-methoxy-1-((6-methoxy-5-methylpyrimidin-4-yl)methyl)-1H-pyrrolo[3,2-b]pyridine-3-carboxamide] | 0.78 (≈ 0.29 µg/mL) |  |
| COc1cnc2c(C(=O)NCCF)cn(Cc3ncnc(N(C)C)c3C)c2c1 [Compound 39, 1-((6-(Dimethylamino)-5-methylpyrimidin-4-yl)methyl)-N-(2-fluoroethyl)-6-methoxy-1H-pyrrolo[3,2-b]pyridine-3-carboxamide] | < 0.39 |  |
| COc1cnc2c(C(=O)NCC(F)F)cn(Cc3ncnc(N(C)C)c3C)c2c1 [Compound 40, N-(2,2-Difluoroethyl)-1-((6-(dimethylamino)-5-methylpyrimidin-4-yl)methyl)-6-methoxy-1H-pyrrolo[3,2-b]pyridine-3-carboxamide] | < 0.39 |  |
| COc1cnc2c(C(=O)NCCO)cn(Cc3ncnc(N(C)C)c3C)c2c1 [Compound 41, 1-((6-(Dimethylamino)-5-methylpyrimidin-4-yl)methyl)-N-(2-hydroxyethyl)-6-methoxy-1H-pyrrolo[3,2-b]pyridine-3-carboxamide] | < 0.39 |  |
| COc1cnc2c(C(=O)NCCF)cn(Cc3ncnc(OC(F)F)c3C)c2c1 [Compound 42, 1-((6-(Difluoromethoxy)-5-methylpyrimidin-4-yl)methyl)-N-(2-fluoroethyl)-6-methoxy-1H-pyrrolo[3,2-b]pyridine-3-carboxamide] | < 0.39 |  |
| COc1cnc2c(C(=O)NCC(F)F)cn(Cc3ncnc(OC(F)F)c3C)c2c1 [Compound 43, N-(2,2-Difluoroethyl)-1-((6-(difluoromethoxy)-5-methylpyrimidin-4-yl)methyl)-6-methoxy-1H-pyrrolo[3,2-b]pyridine-3-carboxamide] | < 0.39 |  |
| COc1cnc2c(C(=O)NCCO)cn(Cc3ncnc(OC(F)F)c3C)c2c1 [Compound 44, 1-((6-(difluoromethoxy)-5-methylpyrimidin-4-yl)methyl)-N-(2-hydroxyethyl)-6-methoxy-1H-pyrrolo[3,2-b]pyridine-3-carboxamide] | 0.78 (≈ 0.318 µg/mL) |  |
